Series [1] relates to Venturia inaequalis. Briefly: Test for Preventive Effect on Apple Scab. It is filed as in vivo. On the set-up: key: A: No diseased area; B: Diseased area of less than 25%; C: Diseased area of at least 25% but less than 50%; Diseased area of at least 50%. The following applies: apple seedlings, wettable powder at 500 ppm active ingredient, preventive, 14 days after inoculation. In short, it runs like this:
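Apple seedlings (var Kogyoku), grown 20 days in a greenhouse, spray-inoculated with Venturia inaequalis spores and held in a moist chamber at 22° C for 48 h, then kept in a greenhouse. Diseased area on the upper two inoculated leaves scored against a standard scale at 14 days post-inoculation.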

For series [2], the system named is Erysiphe graminis. Briefly: Test for Preventive Effect on Wheat Powdery Mildew. It is filed as in vivo. Also noted: key: A: No diseased area; B: Diseased area of less than 25%; C: Diseased area of at least 25% but less than 50%; Diseased area of at least 50%. The following applies: wheat seedlings (Norin-61-go), 500 ppm active ingredient, 10 ml per pot, 10 days after inoculation. As to the method: [table] Test for Preventive Effect on Wheat Powdery Mildew 9 wheat seeds (variety: […] Then, the seedlings were inoculated with […] graminis spores in suspension and placed in a greenhouse at 25 to 30° C. 10 days after the inoculation, the total diseases area of the first leaves in each pot was observed and evaluated on the basis of the standards shown in Table 59. The results are shown in Tables 67 to 71.

In series [3] the test system is Pseudoperonospora cubensis. Briefly: Test for Preventive Effect on Cucumber Downy Mildew. Also noted: key: A: No diseased area; B: Diseased area of less than 25%; C: Diseased area of at least 25% but less than 50%; Diseased area of at least 50%. It is filed as in vivo. The following applies: cucumber seedlings, wettable powder at 500 ppm active ingredient, 7 days after inoculation. The protocol:
Test for Preventive Effect on Cucumber Downy Mildew 9 cucumber seeds (variety: Sagami-hanpaku) were sown in each 9 cmx9 cm polyvinyl chloride pot and grown in a greenhouse for 7 days. […] Then, the seedlings were inoculated with Pseudoperonospora cubensis zoosporangia in suspension by spraying and immediately placed in a moist chamber at 22° C. for 24 hours. Thereafter, the seedlings were placed in a greenhouse. 7 days after the inoculation, the total diseased area in each pot was observed and evaluated on the basis of the standards shown in Table 59. [table]

In general, melting point refers to the temperature of the solid-liquid transition. With `COC(=O)NCc1cccc(-c2ccccc2)c1` [1-1, Methyl N-(3-phenylbenzyl)carbamate], the melting point lay within 49 to 52 °C. The “Evaluation (diseased areas of the upper two of the inoculated leaves)” value in series [1] is on record as “A”. In series [2], the “Evaluation (total diseased area of the first leaves in each pot)” value is listed as “A”.
`CC(C)OC(=O)NCc1cccc(-c2ccccc2)c1` [1-150, Isopropyl N-(3-phenylbenzyl)carbamate]: the melting point was 61 to 64 °C. Besides, the “Evaluation (total diseased area of the first leaves in each pot)” value in series [2] was “B (Diseased area of less than 25%)”.
The corresponding values for `COC(=O)NCc1cccc(-c2ccccc2)c1C` [2-1, Methyl N-(2-methyl-3-phenylbenzyl)carbamate] are 91 to 94 °C and “A”.
`COC(=O)NC(C)c1cccc(-c2ccc(OC)cc2)c1` (stereo not drawn) [3-15, Methyl N-{1-[3-(4-methoxyphenyl)phenyl]ethyl}carbamate] had a melting point of 117 to 119 °C. Further, the “Evaluation (total diseased area in each pot)” value in series [3] is given as “A”.

The values above are taken from US6620961B1, “Biarylalkylenecarbamic acid derivatives and bacteriocides for agricultural and horticultural use” (Kumiai Chemical Industry Co., Ltd., priority 1997, dated 2003).
